The record followed here is patent US20180055049A1, “USE OF PRO-[…] UK-2A FOR CONTROL OF BROWN ROT DIESEASE ON STONE AND POME FRUITS” (Dow AgroSciences LLC, priority 2016, published 2018).

Common to all, as to assay type: in vivo
Assay [1] deals with Monilinia spp. (MONILA). Description: Field trial 2: brown rot of flowers and branches, peaches, southern France. The settings on record: for % Incidence, Branches: Trial 2, branches, 22 DAA, untreated 30.60; for % Incidence, Flowers: Trial 2, flowers, 8 DAA, untreated 55.30. As to the method: (§1) A fungicidal treatment containing Compound I for use against brown rot diseases on stone fruits was carried out in three field trials. The first two trials were carried out in Italy and France in order to investigate the effectiveness of Compound 1 against brown rot of flowers. These two trials were designed as randomized complete block with four replications (plots respectively of 35 and 50 m^2) and were carried out in typical areas for apricot and peaches cultivation, respectively, in northeastern Italy and southern France. Trials were conducted under EPPO PP1/38(2), PP1/135(3), PP1/152(3), PP1/181(3), PP1/239(1) and related guidelines. Trials were sprayed three times during the flowering period, using a backpack mist blower equipment calibrated to apply product respectively at 600 and 700 L/ha of water volume. […] MONILA disease was evaluated on flowers on a sample of ten pre-marked branches per tree, aged one year. The number of infected flowers was counted and consequently the percent incidence was then calculated. A second assessment was then made on 50 small branches randomly selected in the two 2 central trees for each plot, counting the number of diseased small branches and then the % incidence was calculated.

Assay [2] has as its system Monilinia spp. (MONILA). Description: Field trial 1: brown rot of flowers and branches, apricot, northeastern Italy. As to conditions: for % Incidence, Branches: Trial 1, branches, 24 DAA, untreated 23.50; for % Incidence, Flowers: Trial 1, flowers, 8 DAA, untreated 21.00. How it is done:
as §1

In assay [3] the test system is Monilinia fructicola (MONIFC). Description: Field trial 3: brown rot of fruits, peach, Ravenna, northeastern Italy. As to conditions: Trial 3, fruits, 200 g ai/Ha. How it is done: A third trial was conducted in Italy in order to investigate the effectiveness of Compound I against brown rot of fruits. This trial was designed as randomized complete block with four replications and plots of 49.5 m^2 and was carried out in a typical area for peach cultivation in the province of Ravenna in northeastern Italy. The trial was conducted under EPPO PP1/222(1), PP1/135(2), PP1/152(3), PP1/181(3), PP1/225(1), PP1/239(1) and related guidelines. Products were sprayed twice during fruit ripening respectively at BBCH 79-81 and 81-85 of plant grow stage using a self-propelled air-assisted multi plot sprayer designed for efficacy trials with four independent series of 8 nozzles (Albutz, ATR 80 Yellow) calibrated to apply a spray volume of 1,000 L/ha at a pressure of 450 KPa according to the orchard canopy.
The pathogen was certificated to be Monilinia fructicola (MONIFC) by means of an immunoassay followed by a PCR assay on material collected (mummies) from the trial. The brown rot damage at harvest was evaluated on l00 randomly picked fruits per plot. Visual healthy samples of 60 fruits per plot were placed in alveolus plates and kept for 5 days in cold storage. Afterwards the samples were maintained for 14 days at about 20° C. (shelf life period). Several assessments were made in order to check the development of disease during the shelf life simulation. […]

In the case of `COc1ccnc(C(=O)N[C@H]2COC(=O)[C@H](Cc3ccccc3)[C@@H](OC(=O)C(C)C)[C@H](C)OC2=O)c1OCOC(=O)C(C)C` [Compound I], the “% Incidence, Branches” value in the assay with Monilinia spp. (MONILA) [1] (75 g ai/Ha) was 11.98%; with Monilinia spp. (MONILA) [1] (100 g ai/Ha) it was 9.93%; with Monilinia spp. (MONILA) [1] (150 g ai/Ha) it was 4.20%; in the assay with Monilinia spp. (MONILA) [2] (75 g ai/Ha), 22.50%; with Monilinia spp. (MONILA) [2] (100 g ai/Ha) it was 24.50%; in the assay with Monilinia spp. (MONILA) [2] (150 g ai/Ha), 11.00%. The “% Incidence, Flowers” value turned out to be 24.00% in the assay with Monilinia spp. (MONILA) [1] (75 g ai/Ha); 16.70% with Monilinia spp. (MONILA) [1] (100 g ai/Ha); 15.40% in the assay on Monilinia spp. (MONILA) [1] (150 g ai/Ha); 11.25% in the assay on Monilinia spp. (MONILA) [2] (75 g ai/Ha); 4.75% in the assay on Monilinia spp. (MONILA) [2] (100 g ai/Ha); 3.25% in the assay with Monilinia spp. (MONILA) [2] (150 g ai/Ha). The “% Incidence, Fruits” value in assay [3] (7 DAA, untreated 31.3) was found to be 15.0%; in assay [3] (26 DAA, untreated 32.5), 16.8%.
